This passage reports EC50 and CC50 results from patent US20230203004A1, “RSV INHIBITING 3-SUBSTITUTED QUINOLINE AND CINNOLINE DERIVATIVES” (Janssen Sciences Ireland Unlimited Company, priority 2020, published 2023).

Data set [1] deals with rgRSV224 virus. Description: Antiviral activity: rgRSV224 (GFP) replication in HeLa cells. The format is cell-based, respiratory syncytial virus (RSV). Summed up: (§1)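 HeLa cells infected with GFP-expressing rgRSV224 at MOI 1 in RPMI/10% FBS, 0.05% DMSO, with 9 serial 4-fold compound dilutions; 3 days at 37 °C, GFP read by laser microscopy for EC50. Cytotoxicity: uninfected HeLa cells, 3 days, cellular ATP (ATPlite) for CC50.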

Data set [2] can be described thus: Cytotoxicity in HeLa cells (ATP content, ATPlite kit). The format is cell-based. As to conditions: human. Put shortly: as §1
Background: ATP-based viability assays read luminescence as a measure of living cells.

[3] abbreviates: human respiratory syncytial virus, HeLa, 72 h, read-out: RSV HELA EC50, HeLa cells, rgRSV224 MOI = 1, GFP expression three days post-virus exposure, averaged data of several repeat experiments.
The mark [4] stands for this setting: human respiratory syncytial virus, HeLa, comparison table 5.3, antiviral RSV assay of Example 5.1.

Read-outs that look alike come from different tables or passages of the source.

Take `COc1cc(C(=O)NC[C@@](C)(O)c2cc(C(C)(C)O)c(Cl)c(-c3ccc(F)cc3)n2)cc2cc(C)nnc12` [compound 230]: the concentration for a half-maximal effect (EC50) in data set [1] (setting [3]) was 0.12 µM. This compound also had a CC50 at 3 days in data set [2] (TOX HELA CC50) of 57 µM.

Regarding `COc1cc(C(=O)NC[C@](O)(c2cc(C(C)(C)O)c(Cl)c(-c3ccc(F)cc3)n2)C(F)(F)F)cc2cc(C)nnc12` [compound 232, (-)-N-{2-[5-Chloro-6-(4-Fluorophenyl)-4-(2-Hydroxypropan-2-yl)Pyridin-2-yl]-3,3,3-Trifluoro-2-Hydroxypropyl}-8-Methoxy-3-Methylcinnoline-6-Carboxamide], the EC50 in data set [1] (setting [3]) came to 0.0016 µM. The compound further returned a CC50 at 3 days in data set [2] (TOX HELA CC50) of 24 µM.

Take `COc1cc(C(=O)NC[C@@](O)(c2cc(C(C)(C)NS(C)(=O)=O)c(Cl)c(-c3ccc(F)cc3)n2)C(F)(F)F)cc2cc(C)nnc12` [compound 233, (+)-N-{2-[5-Chloro-6-(4-Fluorophenyl)-4-{2-[(Methanesulfonyl)Amino]Propan-2-yl}Pyridin-2-yl]-3,3,3-Trifluoro-2-Hydroxypropyl}-8-Methoxy-3-Methylcinnoline-6-Carboxamide]: the EC50 in data set [1] (setting [3]) turned out to be 0.4 µM. In addition, the CC50 at 3 days in data set [2] (TOX HELA CC50) is 43 µM.

In the case of `COc1cc(C(=O)NC[C@](O)(c2cc(C(C)(C)O)c(F)c(-c3ccc(F)cc3)n2)C(F)(F)F)cc2cc(C)nnc12` [compound 234], the EC50 in data set [1] (setting [4]) is 0.0006 µM; in data set [1] (read-out: RSV HELA EC50, HeLa cells, rgRSV224 MOI = 1, GFP expression three days post-virus exposure, averaged data of several repeat experiments), 0.00082 µM. The CC50 at 3 days in data set [2] (CC50) and in data set [2] (TOX HELA CC50) was 23 µM throughout.

For the compound `COc1cc(C(=O)NC[C@](O)(c2cc(C(C)(C)NS(C)(=O)=O)c(F)c(-c3ccc(F)cc3)n2)C(F)(F)F)cc2cc(C)nnc12` [compound 237, (-)Methoxy-3-Methyl-N-{3,3,3-Trifluoro-2-[5-Fluoro-6-(4-Fluorophenyl)-4-{2-[(MethaneSulfonyl)Amino]propan-2-yl}Pyridin-2-yl]-2-Hydroxypropyl}Cinnoline-6-Carboxamide], the 50% effective concentration (EC50) in data set [1] (setting [3]) is 0.0051 µM. Also, in data set [2] (TOX HELA CC50), the CC50 at 3 days was found to be 51 µM.

Consider `COc1cc(C(=O)NC[C@](O)(c2cc(C(C)(C)O)c(F)c(-c3ccc(F)c(C)c3)n2)C(F)(F)F)cc2cc(C)nnc12` [compound 238, (+)Methoxy-3-Methyl-N-{3,3,3-Trifluoro-2-[5-Fluoro-6-(4-Fluoro-3-Methylphenyl)-4-(2-Hydroxypropan-2-yl)Pyridin-2-yl]-2-Hydroxypropyl}Cinnoline-6-Carboxamide], for which, in data set [1] (setting [3]), the half-maximal effective concentration (EC50) was determined as 0.0029 µM. This compound also had a cytotoxic concentration (CC50) at 3 days in data set [2] (TOX HELA CC50) of 23 µM.

For `COc1cc(C(=O)NC[C@](O)(c2cc(C(C)(C)O)c(F)c(-c3ccc(F)c(F)c3)n2)C(F)(F)F)cc2cc(C)nnc12` [compound 239, (-)-N-{2-[6-(3,4-Difluorophenyl)-5-Fluoro-4-(2-Hydroxypropan-2-yl)Pyridin-2-yl]-3,3,3-Trifluoro-2-Hydroxypropyl}-8-Methoxy-3-Methylcinnoline-6-Carboxamide], the concentration for a half-maximal effect (EC50) in data set [1] (setting [3]) was 0.0005 µM. Also, the CC50 at 3 days in data set [2] (TOX HELA CC50) stood at 19 µM.

On to `COc1cc(C(=O)NC[C@](O)(c2nc(-c3ccc(F)cc3)c(F)c(C(C)(C)O)c2F)C(F)(F)F)cc2cc(C)nnc12` [compound 240, (-)-N-{2-[3,5-Difluoro-6-(4-Fluorophenyl)-4-(2-Hydroxypropan-2-yl)Pyridin-2-yl]-3,3,3-Trifluoro-2-Hydroxypropyl}-8-Methoxy-3-Methylcinnoline-6-Carboxamide], for which, in data set [1] (setting [3]), the 50% effective concentration (EC50) was found to be 0.0012 µM. Moreover, it took 46 µM to reach half-maximal cytotoxicity in data set [2] (TOX HELA CC50) (CC50 at 3 days).

Regarding `COc1cc(C(=O)NC[C@](O)(c2nc(-c3ccc(F)cc3)c(F)c(C(C)(C)NC(C)=O)c2F)C(F)(F)F)cc2cc(C)nnc12` [compound 241, (-)-N-{2-[4-(2-Acetamidopropan-2-yl)-3,5-Difluoro-6-(4-Fluorophenyl)Pyridin-2-yl]-3,3,3-Trifluoro-2-Hydroxypropyl}-8-Methoxy-3-Methylcinnoline-6-Carboxamide], the EC50 in data set [1] (setting [3]) was determined as 0.0015 µM. This compound also returned a CC50 at 3 days in data set [2] (TOX HELA CC50) of 50 µM.

For the compound `COc1cc(C(=O)NC[C@@](O)(c2nc(-c3ccc(F)cc3)c(F)c(C(C)(C)NC(C)=O)c2F)C(F)(F)F)cc2cc(C)nnc12` [compound 242, (+)-N-{2-[4-(2-Acetamidopropan-2-yl)-3,5-Difluoro-6-(4-Fluorophenyl)Pyridin-2-yl]-3,3,3-Trifluoro-2-Hydroxypropyl}-8-Methoxy-3-Methylcinnoline-6-Carboxamide], in data set [1] (setting [3]), the EC50 was determined as 0.17 µM. In data set [2] (TOX HELA CC50), this compound yielded a cytotoxic concentration (CC50) at 3 days of 48 µM.

`COc1cc(C(=O)NC[C@](O)(c2nc(-c3ccc(F)cc3)c(F)c(C(C)(C)NS(C)(=O)=O)c2F)C(F)(F)F)cc2cc(C)nnc12` [compound 243, (-)-N-{2-[3,5-Difluoro-6-(4-Fluorophenyl)-4-{2-[(Methanesulfoyl)Amino]Propan-2-yl}Pyridin-2-yl]-3,3,3-Trifluoro-2-Hydroxypropyl}-8-Methoxy-3-Methylcinnoline-6-Carboxamide]: in data set [1] (setting [3]), the concentration giving a half-maximal response (EC50) was 0.003 µM. This compound showed a CC50 at 3 days in data set [2] (TOX HELA CC50) of 45 µM.

In the case of `COc1cc(C(=O)NC[C@@](O)(c2nc(-c3ccc(F)cc3)c(F)c(C(C)(C)NS(C)(=O)=O)c2F)C(F)(F)F)cc2cc(C)nnc12` [compound 244, (+)-N-{2-[3,5-Difluoro-6-(4-Fluorophenyl)-4-{2-[(Methanesulfonyl)Amino]Propan-2-yl}Pyridin-2-yl]-3,3,3-Trifluoro-2-Hydroxypropyl}-8-Methoxy-3-Methylcinnoline-6-Carboxamide], in data set [1] (setting [3]), the EC50 was 0.058 µM. The same compound came in with a 50% cytotoxic concentration (CC50) at 3 days in data set [2] (TOX HELA CC50) of 43 µM.

`COc1cc(C(=O)NC[C@](O)(c2nc(-c3ccc(F)cc3)c(Cl)c(C(C)(C)O)c2F)C(F)(F)F)cc2cc(C)nnc12` [compound 247, (-)-N-{2-[5-Chloro-3-Fluoro-6-(4-Fluorophenyl)-4-(2-Hydroxypropan-2-yl)Pyridin-2-yl]-3,3,3-Trifluoro-2-Hydroxypropyl}-8-Methoxy-3-Methylcinnoline-6-Carboxamide]: in data set [1] (setting [3]), the half-maximal effective concentration (EC50) came to 0.0019 µM. For the same compound, the 50% cytotoxic concentration (CC50) at 3 days in data set [2] (TOX HELA CC50) worked out at 51 µM.

On to `COc1cc(C(=O)NC[C@](O)(c2cc(C(C)(C)O)c(Cl)c(-c3ccc(F)cc3)n2)C2CC2)cc2cc(C)nnc12` [compound 251, N-{(-)[5-Chloro-6-(4-Fluorophenyl)-4-(2-Hydroxypropanyl)Pyridinyl]CyclopropylHydroxyethyl}-8-Methoxy-3-Methylcinnoline-6-Carboxamide], for which the EC50 in data set [1] (setting [3]) is 0.00053 µM. The CC50 at 3 days in data set [2] (TOX HELA CC50) was determined as 28 µM.

`COc1cc(C(=O)NC[C@](O)(c2cc(C(C)(C)O)c(F)c(-c3ccc(F)cc3)n2)C2CC2)cc2cc(C)nnc12` [compound 252, (-)-N-{2-Cyclopropyl-2-[5-Fluoro-6-(4-Fluorophenyl)-4-(2-Hydroxypropan-2-yl)Pyridin-2-yl]-2-Hydroxyethyl}-8-Methoxy-3-Methylcinnoline-6-Carboxamide]: the EC50 in data set [1] (setting [3]) and in data set [1] (setting [4]) was 0.0003 µM in each case. In addition, the results for the CC50 at 3 days in data set [2] (CC50) and in data set [2] (TOX HELA CC50) were 38 µM and 43 µM, respectively.

`Cc1cc2cc(C(=O)NC[C@](O)(c3cc(C(C)(C)O)c(Cl)c(-c4ccc(F)cc4)n3)C3CC3)cc(OC3CC3)c2nn1` [compound 264, (-)-N-{2-[5-Chloro-6-(4-Fluorophenyl)-4-(2-Hydroxypropan-2-yl)Pyridin-2-yl]-2-Cyclopropyl-2-Hydroxyethyl}-8-(Cyclopropyloxy)-3-Methylcinnoline-6-Carboxamide]: in data set [1] (setting [3]), the EC50 was determined as 0.00087 µM. In data set [2] (TOX HELA CC50), this compound returned a CC50 at 3 days of 32 µM.

In general, EC50 refers to the concentration needed to bring the measured effect to its halfway point. Usually CC50 stands for the concentration that lowers cell viability or growth by half. A higher CC50 goes with lower toxicity to the cells.
